Reference: PubChem BioAssay (NCI)
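Interpolation was linear, between the two tested concentrations surrounding the appropriate level; five concentrations were tested over 48 hours in 96-well plates. At the GI50, growth is halved. At the TGI there is no net growth.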

Experiments:
Experiment in all cases: NCI anticancer screen, dose series, 48 h
786-0 renal = test system: 786-0 renal
A498 renal = test system: A498 renal
A549 NSCLC = test system: A549 NSCLC
ACHN renal = test system: ACHN renal
BT-549 breast = test system: BT-549 breast
CAKI-1 renal = test system: CAKI-1 renal
CCRF-CEM leukemia = test system: CCRF-CEM leukemia
COLO 205 colon = test system: COLO 205 colon
DU-145 prostate = test system: DU-145 prostate
HCC-2998 colon = test system: HCC-2998 colon
HCT-116 colon = test system: HCT-116 colon
HCT-15 colon = test system: HCT-15 colon
HL-60(TB) leukemia = test system: HL-60(TB) leukemia
HOP-62 NSCLC = test system: HOP-62 NSCLC
HOP-92 NSCLC = test system: HOP-92 NSCLC
HS 578T breast = test system: HS 578T breast
HT29 colon = test system: HT29 colon
IGROV1 ovarian = test system: IGROV1 ovarian
K-562 leukemia = test system: K-562 leukemia
KM12 colon = test system: KM12 colon
LOX IMVI melanoma = test system: LOX IMVI melanoma
M14 melanoma = test system: M14 melanoma
MALME-3M melanoma = test system: MALME-3M melanoma
MCF7 breast = test system: MCF7 breast
MDA-MB-231 breast = test system: MDA-MB-231 breast
MDA-MB-435 = test system: MDA-MB-435
MOLT-4 leukemia = test system: MOLT-4 leukemia
NCI-H226 lung = test system: NCI-H226 lung
NCI-H23 lung = test system: NCI-H23 lung
NCI-H460 lung = test system: NCI-H460 lung
NCI-H522 lung = test system: NCI-H522 lung
NCI/ADR-RES ovarian = test system: NCI/ADR-RES ovarian
OVCAR-3 ovarian = test system: OVCAR-3 ovarian
OVCAR-4 ovarian = test system: OVCAR-4 ovarian
OVCAR-5 ovarian = test system: OVCAR-5 ovarian
OVCAR-8 ovarian = test system: OVCAR-8 ovarian
PC-3 prostate = test system: PC-3 prostate
RPMI-8226 leukemia = test system: RPMI-8226 leukemia
RXF 393 renal = test system: RXF 393 renal
SF-268 CNS = test system: SF-268 CNS
SF-295 CNS = test system: SF-295 CNS
SF-539 CNS = test system: SF-539 CNS
SK-MEL-2 melanoma = test system: SK-MEL-2 melanoma
SK-MEL-28 melanoma = test system: SK-MEL-28 melanoma
SK-MEL-5 melanoma = test system: SK-MEL-5 melanoma
SK-OV-3 ovarian = test system: SK-OV-3 ovarian
SN12C renal = test system: SN12C renal
SNB-19 CNS = test system: SNB-19 CNS
SNB-75 CNS = test system: SNB-75 CNS
SR leukemia = test system: SR leukemia
SW-620 colon = test system: SW-620 colon
T-47D breast = test system: T-47D breast
TK-10 renal = test system: TK-10 renal
U251 CNS = test system: U251 CNS
UACC-257 melanoma = test system: UACC-257 melanoma
UACC-62 melanoma = test system: UACC-62 melanoma
UO-31 renal = test system: UO-31 renal

SMILES: COc1cc[nH]c1/C=C1\C(=O)Nc2ccccc21
- GI50 (786-0 renal): 15.9 µM
- TGI (786-0 renal): > 25 µM
- GI50 (A498 renal): 5.34 µM
- TGI (A498 renal): > 25 µM
- GI50 (A549 NSCLC): 11.1 µM
- TGI (A549 NSCLC): > 25 µM
- GI50 (ACHN renal): 3.5 µM
- TGI (ACHN renal): > 25 µM
- GI50 (BT-549 breast): 7.98 µM
- TGI (BT-549 breast): > 25 µM
- GI50 (CAKI-1 renal): 1.04 µM
- TGI (CAKI-1 renal): > 11.5 µM
- GI50 (CCRF-CEM leukemia): 13.1 µM
- TGI (CCRF-CEM leukemia): > 25 µM
- GI50 (COLO 205 colon): 14.1 µM
- TGI (COLO 205 colon): > 25 µM
- GI50 (DU-145 prostate): 9.37 µM
- TGI (DU-145 prostate): > 25 µM
- GI50 (HCC-2998 colon): > 20.7 µM
- TGI (HCC-2998 colon): > 25 µM
- GI50 (HCT-116 colon): 5.66 µM
- TGI (HCT-116 colon): > 25 µM
- GI50 (HCT-15 colon): 4.85 µM
- TGI (HCT-15 colon): > 25 µM
- GI50 (HL-60(TB) leukemia): 6.58 µM
- TGI (HL-60(TB) leukemia): > 25 µM
- GI50 (HOP-62 NSCLC): > 19.3 µM
- TGI (HOP-62 NSCLC): > 25 µM
- GI50 (HOP-92 NSCLC): 4.34 µM
- TGI (HOP-92 NSCLC): > 21 µM
- GI50 (HS 578T breast): 5.91 µM
- TGI (HS 578T breast): > 25 µM
- GI50 (HT29 colon): 12.3 µM
- TGI (HT29 colon): > 25 µM
- GI50 (IGROV1 ovarian): 8.48 µM
- TGI (IGROV1 ovarian): > 25 µM
- GI50 (K-562 leukemia): 16.9 µM
- TGI (K-562 leukemia): > 25 µM
- GI50 (KM12 colon): 0.948 µM
- TGI (KM12 colon): > 25 µM
- GI50 (LOX IMVI melanoma): 7.68 µM
- TGI (LOX IMVI melanoma): > 25 µM
- GI50 (M14 melanoma): 4.98 µM
- TGI (M14 melanoma): > 25 µM
- GI50 (MALME-3M melanoma): 9.88 µM
- TGI (MALME-3M melanoma): > 25 µM
- GI50 (MCF7 breast): 5.79 µM
- TGI (MCF7 breast): > 25 µM
- GI50 (MDA-MB-231 breast): 4.87 µM
- TGI (MDA-MB-231 breast): > 25 µM
- GI50 (MDA-MB-435): 9.01 µM
- TGI (MDA-MB-435): > 25 µM
- GI50 (MOLT-4 leukemia): 11 µM
- TGI (MOLT-4 leukemia): > 25 µM
- GI50 (NCI-H226 lung): 7.14 µM
- TGI (NCI-H226 lung): > 25 µM
- GI50 (NCI-H23 lung): 7.7 µM
- TGI (NCI-H23 lung): > 25 µM
- GI50 (NCI-H460 lung): 8.85 µM
- TGI (NCI-H460 lung): > 25 µM
- GI50 (NCI-H522 lung): 12.7 µM
- TGI (NCI-H522 lung): > 25 µM
- GI50 (NCI/ADR-RES ovarian): 15.5 µM
- TGI (NCI/ADR-RES ovarian): > 25 µM
- GI50 (OVCAR-3 ovarian): > 21.5 µM
- TGI (OVCAR-3 ovarian): > 25 µM
- GI50 (OVCAR-4 ovarian): 8.02 µM
- TGI (OVCAR-4 ovarian): > 25 µM
- GI50 (OVCAR-5 ovarian): 15.3 µM
- TGI (OVCAR-5 ovarian): > 25 µM
- GI50 (OVCAR-8 ovarian): 14.2 µM
- TGI (OVCAR-8 ovarian): > 25 µM
- GI50 (PC-3 prostate): 8.78 µM
- TGI (PC-3 prostate): > 25 µM
- GI50 (RPMI-8226 leukemia): 14.5 µM
- TGI (RPMI-8226 leukemia): > 25 µM
- GI50 (RXF 393 renal): 5.33 µM
- TGI (RXF 393 renal): > 25 µM
- GI50 (SF-268 CNS): 11.2 µM
- TGI (SF-268 CNS): > 25 µM
- GI50 (SF-295 CNS): > 25 µM
- TGI (SF-295 CNS): > 25 µM
- GI50 (SF-539 CNS): 7.02 µM
- TGI (SF-539 CNS): > 25 µM
- GI50 (SK-MEL-2 melanoma): 3.55 µM
- TGI (SK-MEL-2 melanoma): 15.7 µM
- GI50 (SK-MEL-28 melanoma): 16 µM
- TGI (SK-MEL-28 melanoma): > 25 µM
- GI50 (SK-MEL-5 melanoma): 10.9 µM
- TGI (SK-MEL-5 melanoma): > 25 µM
- GI50 (SK-OV-3 ovarian): 8.14 µM
- TGI (SK-OV-3 ovarian): > 25 µM
- GI50 (SN12C renal): 7.36 µM
- TGI (SN12C renal): > 25 µM
- GI50 (SNB-19 CNS): > 25 µM
- TGI (SNB-19 CNS): > 25 µM
- GI50 (SNB-75 CNS): 5.9 µM
- TGI (SNB-75 CNS): > 25 µM
- GI50 (SR leukemia): 6.44 µM
- TGI (SR leukemia): > 22.7 µM
- GI50 (SW-620 colon): 7.24 µM
- TGI (SW-620 colon): > 25 µM
- GI50 (T-47D breast): 4.05 µM
- TGI (T-47D breast): > 25 µM
- GI50 (TK-10 renal): 6.71 µM
- TGI (TK-10 renal): > 25 µM
- GI50 (U251 CNS): 4.17 µM
- TGI (U251 CNS): > 25 µM
- GI50 (UACC-257 melanoma): 17.3 µM
- TGI (UACC-257 melanoma): > 25 µM
- GI50 (UACC-62 melanoma): 8.58 µM
- TGI (UACC-62 melanoma): > 25 µM
- GI50 (UO-31 renal): 1.69 µM
- TGI (UO-31 renal): 24.6 µM
